{"source": "patent US20240156800A1", "about": "“EP300 DEGRADER AND USES THEREOF IN NEUROBLASTOMA” (DANA-FARBER CANCER INSTITUTE, INC., priority 2021, published 2024)", "key": {"[1]": {"molecular_target": "T1, CBP (Mus musculus, UniProt P45481)", "T1 construct": "from tissue; host or cells: liver of Balb/c Crbn^ILE391VAL knock-in mice", "T1 sequence (P45481 whole entry)": "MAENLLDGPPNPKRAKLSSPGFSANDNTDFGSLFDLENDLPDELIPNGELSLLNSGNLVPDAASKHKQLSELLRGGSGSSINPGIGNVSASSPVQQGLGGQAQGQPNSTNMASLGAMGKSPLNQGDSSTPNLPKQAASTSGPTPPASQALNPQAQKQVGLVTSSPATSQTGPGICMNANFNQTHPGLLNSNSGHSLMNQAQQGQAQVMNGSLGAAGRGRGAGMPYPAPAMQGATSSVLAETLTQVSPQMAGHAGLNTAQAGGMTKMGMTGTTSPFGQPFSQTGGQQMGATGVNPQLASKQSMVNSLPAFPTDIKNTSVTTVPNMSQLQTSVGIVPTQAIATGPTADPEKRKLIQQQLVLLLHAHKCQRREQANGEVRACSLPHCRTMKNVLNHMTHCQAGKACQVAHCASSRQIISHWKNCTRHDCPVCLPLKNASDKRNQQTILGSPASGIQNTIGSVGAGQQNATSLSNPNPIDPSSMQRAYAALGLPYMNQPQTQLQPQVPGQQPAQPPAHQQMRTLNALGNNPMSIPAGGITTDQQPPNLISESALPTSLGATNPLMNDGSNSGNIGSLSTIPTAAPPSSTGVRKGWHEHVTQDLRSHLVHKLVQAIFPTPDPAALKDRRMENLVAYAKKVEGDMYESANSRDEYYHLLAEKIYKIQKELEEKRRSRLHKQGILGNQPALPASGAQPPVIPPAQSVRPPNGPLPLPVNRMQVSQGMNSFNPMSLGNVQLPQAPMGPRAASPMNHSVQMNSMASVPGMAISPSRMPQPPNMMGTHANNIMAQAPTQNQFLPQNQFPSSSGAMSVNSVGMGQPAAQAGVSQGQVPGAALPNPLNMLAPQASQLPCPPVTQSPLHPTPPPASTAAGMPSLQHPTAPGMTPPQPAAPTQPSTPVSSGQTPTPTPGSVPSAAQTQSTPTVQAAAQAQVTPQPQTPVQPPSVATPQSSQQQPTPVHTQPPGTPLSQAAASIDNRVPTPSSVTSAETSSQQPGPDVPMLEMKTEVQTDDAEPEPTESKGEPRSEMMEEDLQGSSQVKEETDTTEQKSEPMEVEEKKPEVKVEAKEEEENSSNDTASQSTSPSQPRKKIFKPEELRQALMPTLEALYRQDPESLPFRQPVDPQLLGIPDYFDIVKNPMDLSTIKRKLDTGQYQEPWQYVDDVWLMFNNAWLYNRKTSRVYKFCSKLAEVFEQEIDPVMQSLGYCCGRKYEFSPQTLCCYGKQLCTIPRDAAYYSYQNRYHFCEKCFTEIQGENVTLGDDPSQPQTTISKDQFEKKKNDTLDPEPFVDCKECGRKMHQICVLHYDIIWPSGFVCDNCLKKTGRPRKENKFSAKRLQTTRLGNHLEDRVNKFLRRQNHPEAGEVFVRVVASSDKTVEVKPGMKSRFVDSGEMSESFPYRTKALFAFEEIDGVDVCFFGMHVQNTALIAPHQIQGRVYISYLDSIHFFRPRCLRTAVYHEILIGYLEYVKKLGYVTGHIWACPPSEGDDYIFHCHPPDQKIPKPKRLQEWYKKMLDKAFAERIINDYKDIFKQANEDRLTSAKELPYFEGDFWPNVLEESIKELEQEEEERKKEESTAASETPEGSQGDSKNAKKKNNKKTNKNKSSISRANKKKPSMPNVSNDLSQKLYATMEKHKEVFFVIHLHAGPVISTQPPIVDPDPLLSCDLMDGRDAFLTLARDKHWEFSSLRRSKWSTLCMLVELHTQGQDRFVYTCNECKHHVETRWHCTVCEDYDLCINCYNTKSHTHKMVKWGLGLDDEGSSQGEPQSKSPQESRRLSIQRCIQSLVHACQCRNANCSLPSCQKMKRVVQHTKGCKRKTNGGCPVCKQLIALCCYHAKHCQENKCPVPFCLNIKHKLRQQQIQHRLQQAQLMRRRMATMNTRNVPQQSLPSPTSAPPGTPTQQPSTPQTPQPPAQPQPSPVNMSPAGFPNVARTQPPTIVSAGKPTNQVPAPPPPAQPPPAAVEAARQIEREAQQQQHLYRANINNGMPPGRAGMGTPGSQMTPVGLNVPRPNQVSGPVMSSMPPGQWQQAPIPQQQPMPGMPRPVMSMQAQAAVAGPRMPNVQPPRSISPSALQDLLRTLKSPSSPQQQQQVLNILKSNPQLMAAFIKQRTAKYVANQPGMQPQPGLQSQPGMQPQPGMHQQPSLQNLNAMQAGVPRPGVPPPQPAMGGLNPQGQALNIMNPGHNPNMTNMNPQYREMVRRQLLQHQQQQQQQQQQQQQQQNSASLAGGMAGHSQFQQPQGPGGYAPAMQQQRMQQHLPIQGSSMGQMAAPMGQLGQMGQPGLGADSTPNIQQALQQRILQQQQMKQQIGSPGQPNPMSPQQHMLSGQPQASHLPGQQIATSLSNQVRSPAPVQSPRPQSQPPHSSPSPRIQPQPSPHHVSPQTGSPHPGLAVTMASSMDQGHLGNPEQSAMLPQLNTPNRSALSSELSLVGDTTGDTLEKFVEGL", "test": "Immunohistochemistry of CBP in liver of Crbn ILE391VAL knockin mice", "format": "in vivo", "settings": "40 mg/Kg IP daily, 14 days", "method": "For toxicity studies, four female CD1 mice (Charles River Laboratories) were injected intraperitoneally (IP) with single doses of 10 mg/Kg (R,S)-JQAD1 solubilized in 10% hydroxypropyl β-cyclodextrin (Sigma-Aldrich®) in sterile water. Following injection, blood concentration of (R,S)-JQAD1 was measured by serial measurements of animal serum at time points out to 24 h, by liquid chromatography with tandem mass spectrometry (LC-MS/MS) analysis. Pharmacokinetics were performed at ChemPartner in Shanghai, China, using LC-MS/MS method and pharmacokinetics parameters (Tmax, Cmax, T1/2, AUC, etc.) calculated with WinNonlin® V 6.2 statistics software (Pharsight Corporation) using a noncompartmental model. For maximally tolerated dose (MTD) testing, six female CD1 mice were treated with daily IP doses of (R,S)-JQAD1 at 10, 20, or 40 mg/kg. Animals were monitored for animal weight, grooming and behavior daily without noted effects. […] Animal weights, behavior and grooming were monitored daily, for a total of 21 days. […] Blood samples were obtained by retro-orbital puncture and blood analyzed at the Small Animal Imaging Facility at Beth Israel Deaconess Medical Center (Boston, MA), on a Hemavet® 9500FS (Drew Scientific) for blood counts, creatinine, AST, ALT, ALP, GGTP, and BUN measurements. […]"}, "[2]": {"test": "Pharmacokinetic analysis after a single intraperitoneal dose in CD1 mice", "format": "in vivo, mouse", "settings": "10 mg/Kg single IP dose, murine serum", "method": "For toxicity studies, four female CD1 mice (Charles River Laboratories) were injected intraperitoneally (IP) with single doses of 10 mg/Kg (R,S)-JQAD1 solubilized in 10% hydroxypropyl β-cyclodextrin (Sigma-Aldrich®) in sterile water. Following injection, blood concentration of (R,S)-JQAD1 was measured by serial measurements of animal serum at time points out to 24 h, by liquid chromatography with tandem mass spectrometry (LC-MS/MS) analysis. Pharmacokinetics were performed at ChemPartner in Shanghai, China, using LC-MS/MS method and pharmacokinetics parameters (Tmax, Cmax, T1/2, AUC, etc.) calculated with WinNonlin® V 6.2 statistics software (Pharsight Corporation) using a noncompartmental model. For maximally tolerated dose (MTD) testing, six female CD1 mice were treated with daily IP doses of (R,S)-JQAD1 at 10, 20, or 40 mg/kg. Animals were monitored for animal weight, grooming and behavior daily without noted effects. For MTD testing in humanized CRBN knockin (Balb/c CRBN^ILE391VAL) (Jackson Laboratories), 6 mice per treatment group were treated with either vehicle control or (R,S)-JQAD1 at 40 mg/kg/day by IP injection. Animal weights, behavior and grooming were monitored daily, for a total of 21 days. At day 14, three mice per treatment group were sacrificed and tissues fixed for immunohistochemistry. Blood samples were obtained by retro-orbital puncture and blood analyzed at the Small Animal Imaging Facility at Beth Israel Deaconess Medical Center (Boston, MA), on a Hemavet® 9500FS (Drew Scientific) for blood counts, creatinine, AST, ALT, ALP, GGTP, and BUN measurements."}, "[3]": {"tested_on": "H3K27ac", "test": "Western blotting of H3K27ac in treated NB cells", "format": "cell-based, human", "settings": "Kelly cells, 24 h", "method": "Cells growing in culture were lysed for whole cell lysates as described in Durbin et al. Nat. Genet. 50:1240-1246 (2018) and Wang et al. Nat. Commun. 10:5622 (2019). Nuclear lysates were prepared using the NE-PER® nuclear lysate kit (Thermo Scientific™) according to the manufacturer's protocol. Chromatin lysates were prepared with the total histone extraction kit (Epigentek). Briefly, equivalent amounts of protein were resolved by western blotting using 4-12% Bis-Tris NuPAGE™ gels (Thermo-Fisher Scientific) prior to transfer, and immunoblotting using primary antibodies to: MYCN (1:1000, Cell Signaling Technology®), H3K27ac (1:1000, Abcam), total H3 (1:1000, Cell Signaling Technology®), EP300 (1:1000, Abcam), CBP (1:500, Cell Signaling Technology®), Cas9 (1:1000, Cell Signaling Technology®), cleaved-PARP1 (1:1000, Cell Signaling Technology), cleaved Caspase-3 (1:1000, Cell Signaling Technology®), β-actin (1:1000, Cell Signaling Technology®), GATA3 (1:1000, EMD Millipore™), TFAP2β (1:1000, Cell Signaling Technology®), Vinculin (1:1000, EMD Millipore™), CRBN (1:1000, Cell Signaling Technology®), HAND2 (1:1000, Santa Cruz Biotechnology). Secondary antibodies were horseradish peroxidase (HRP)-conjugated anti-rabbit or anti-mouse (1:5000, Santa Cruz Biotechnology), incubated prior to exposure to enhanced chemiluminescence reagents (GE, Amersham). For immunoprecipitation, equal amounts of protein were diluted in buffer C as described in Mansour et al. Science 346:1373-1377 (2014) and incubated with antibodies covalently conjugated to Dynabeads™ M-270 beads (Thermo-Fisher Scientific) overnight according to the manufacturer's directions. Antibodies used included: H3K27ac, EP300 (Abcam), CBP, TFAP2β (Cell Signaling Technology®), rabbit immunoglobulin G (IgG) (Santa Cruz Biotechnology®). Immunoprecipitated protein was isolated as per the manufacturer's directions and subjected to western blotting, as described above, or mass spectrometry."}, "[4]": {"test": "Maximum tolerated dose testing, daily IP dosing in CD1 mice", "format": "in vivo", "method": "For toxicity studies, four female CD1 mice (Charles River Laboratories) were injected intraperitoneally (IP) with single doses of 10 mg/Kg (R,S)-JQAD1 solubilized in 10% hydroxypropyl β-cyclodextrin (Sigma-Aldrich®) in sterile water. Following injection, blood concentration of (R,S)-JQAD1 was measured by serial measurements of animal serum at time points out to 24 h, by liquid chromatography with tandem mass spectrometry (LC-MS/MS) analysis. Pharmacokinetics were performed at ChemPartner in Shanghai, China, using LC-MS/MS method and pharmacokinetics parameters (Tmax, Cmax, T1/2, AUC, etc.) calculated with WinNonlin® V 6.2 statistics software (Pharsight Corporation) using a noncompartmental model. For maximally tolerated dose (MTD) testing, six female CD1 mice were treated with daily IP doses of (R,S)-JQAD1 at 10, 20, or 40 mg/kg. Animals were monitored for animal weight, grooming and behavior daily without noted effects. […] Animal weights, behavior and grooming were monitored daily, for a total of 21 days. […] Blood samples were obtained by retro-orbital puncture and blood analyzed at the Small Animal Imaging Facility at Beth Israel Deaconess Medical Center (Boston, MA), on a Hemavet® 9500FS (Drew Scientific) for blood counts, creatinine, AST, ALT, ALP, GGTP, and BUN measurements."}, "[5]": {"tested_on": "Kelly, NGP and BE2C NB cells", "test": "Propidium iodide DNA flow cytometry (cell cycle, sub-G1)", "format": "cell-based, human", "settings": "Kelly and NGP cells", "method": "Cells were infected with lentiviruses encoding single guide RNAs (sgRNAs) or treated with compounds as described for the noted length of time. Cells were then liberated from adhesion to the plate using a sterile spatula (Coming®) followed by centrifugation, aspiration of media, and resuspension in hypotonic citrate-propidium iodide (PI) solution for 30 minutes at 37° C. (Tate et al. Cytometry 4:211-215 (1983)). Nuclei were stabilized using 5M NaCl prior to analysis on a FACSAria™ II (BD Biosciences). Analysis of cell cycle phases was performed using FlowJo® v10.7 (BD Biosciences)."}}, "note": "“Also recorded” adds a separate entry of the source. Where two headings read alike, the source gives them in different places."}
{"compound": "C[C@H](N(Cc1ccc(F)cc1)C(=O)CN1C(=O)O[C@@]2(CCc3cc(NC(=O)CCCCCCCCCCCNc4ccc5c(c4)C(=O)N(C4CCC(=O)NC4=O)C5=O)ccc32)C1=O)C(F)(F)F", "note": "(stereo partly drawn) [JQAD1, 12-((2-(2,6-dioxopiperidin-3-yl)-1,3-dioxoisoindolin-5-yl)amino)-N-((R)-3′-(2-((4-fluorobenzyl)((S)-1,1,1-trifluoropropan-2-yl)amino)-2-oxoethyl)-2′,4′-dioxo-2,3-dihydrospiro[indene-1,5′-oxazolidin]-5-yl)dodecanamide]", "values": [{"measurement": "CBP in liver", "setting": "[1]", "result": "CBP remained detectable by immunohistochemistry"}, {"measurement": "half-life", "setting": "[2]", "result": "13.3 (+/−3.37) h"}, {"measurement": "Cmax", "setting": "[2]; female, mouse", "result": 7, "unit": "µM"}, {"measurement": "half-life", "setting": "[2]; female, mouse, read-out: half-life (converted)", "result": 13.3, "unit": "h"}, {"measurement": "H3K27ac modification", "setting": "[3]", "result": "parallel loss of the H3K27ac modification"}, {"measurement": "H3K27ac modification", "setting": "[3]; listed as (R,S)-JQAD1", "result": "suppressed both H3K27ac and EP300 expression levels"}, {"measurement": "tolerability / animal weight", "setting": "[4]; daily IP at increasing doses (10, 20, 40 mg/kg), CD1 mice", "result": "well tolerated with no signs of animal weight loss; also recorded: no effect on animal weight"}, {"measurement": "maximal dosage for single-dose IP administration without evident toxicity", "setting": "[4]; mouse, IP", "result": 40, "unit": "mg/kg"}, {"measurement": "cell cycle / subG1 effect", "setting": "[5]", "result": "induction of a subG1 peak"}]}
